The text below walks through data of US11504414B2, “Bacterial inhibitors” (priority 2016, dated 2022).

Where no end group is shown, it is not given here.

The test system of series [1] is P. gingivalis 33277. It counts as cell-based, Porphyromonas gingivalis. As to conditions: for inhibitory activity on virulence gene expression: lower efficiency than peptide4; for Relative expression level fmA / Relative expression level kgp / Relative expression level mfa1 / Relative expression level pgn0128 / Relative expression level rgpA / Relative expression level rgpA/B: peptide 16 μM in TSB; for Relative expression level fmA: mRNA by real-time PCR relative to absence of peptides = 1 unit, mean of three experiments; for Relative expression level kgp / Relative expression level mfa1 / Relative expression level pgn0128 / Relative expression level rgpA / Relative expression level rgpA/B: mRNA relative to absence of peptides = 1 unit. The method, then: The half inhibitory concentration (IC50) was measured by conducting three independent experiments to determine mRNA levels of fimA, mfa1, rgpA/B, and kgp in the presence of peptide4 at the concentrations 0, 4, 16, and 64 μM, respectively. The IC50 for each gene was established using a Microsoft Excel program with add-in for curve fitting. Asterisks indicate the statistical significances of IC50 of peptide4 for a specific gene when compared to that for the fimA gene (P<0.05; t test).
RNA isolation and qPCR. P. gingivalis were homogenized in Trizol Reagent (Invitrogen, Carlsbad, Calif.) and RNA was purified using an RNeasy mini spin column (Qiagen, Valencia, Calif.). RNA samples were digested on-column with RNase-free DNase, and total RNA was tested using an Agilent 2100 Bioanalyzer to ensure the quality of the samples. Amplification reactions consisted of a reverse transcription using a Bio-Rad iScript Reverse Transcription Supermix on a TC-3000 thermal cycler (Techne, Staffordshire, ST15 OSA, UK) and a real-time qRT-PCR analysis using a QuantiTect SYBR Green RT-PCR Kit (Qiagen) on an iCycler MyiQ™ Real-Time PCR detection system (Bio-Rad Laboratories, Inc, Hercules, Calif.) according to the manufacturer's instructions. P. gingivalis 16 S rRNA gene was used as a normalizing gene. The melting curve profile was analyzed to verify a single peak for each sample, which indicated primer specificity. The expression levels of the investigated genes for the test sample were determined relative to the untreated calibrator sample by using the comparative cycle threshold (ΔCT) method. ΔCT was calculated by subtracting the average CT value of the test sample from the average CT value of the calibrator sample, and the value used to calculate the ratio between the two by assuming 100% amplification efficiency.
Peptide synthesis and activity. Peptides were synthesized by PEPperPRINT and Biomatik (Delaware) and purified with High Performance Liquid Chromatography (HPLC) at 90% purity. Peptides were resuspended in nuclease/proteinase-free PBS, aliquoted, and stored at −20° C. Inhibitory activity of peptides were determined as described (Hajishengallis, G., Darveau, R. P. & Curtis, M. A. The keystone-pathogen hypothesis. Nature reviews. Microbiology 10, 717-725, doi:10.1038/nrmicro2873 (2012)) with slight modification. Peptides were mixed with 5×10^5 cells of P. gingivalis, spotted onto a TSB blood agar plate, and cultured for 60 h anaerobically. The expression levels of fimbrial and gingipain mRNA or proteins were measured using qRT-PCR or western blot analyses.
P. gingivalis 33277 was grown TSB in the presence or absence of peptide at a concentration 16 μM. Transcript levels were measured by real-time PCR. The mRNA levels of genes are indicated relative to the expression level in the absence of peptides as 1 unit. Results shown are means and standard deviations from three independent experiments. Asterisks indicate the statistical significance of expression levels at least two fold in P. gingivalis grown in TSB with/without peptides (P<0.05; t test).

In series [2] the test system is surface extracts of P. gingivalis 33277. In words: ArcA peptide microarray binding of surface extracts. Set-up: species or system Porphyromonas gingivalis. As to conditions: portions of ArcA. The method, then: The five highest peaks are numbered.
Protein Interaction Screening. Surface extracts of P. gingivalis were collected by sonication (1 min for three times) and centrifugation (13000 g for 30 min) followed by filtration (0.2 μm pore size). Peptide microarray analysis was performed by PEPperPRINT (Heidelberg, Germany). An ArcA microarray was generated with 409 different peptides of ArcA, and each peptide contained 15 amino acids with a peptide-peptide overlap of 14 amino acids. After blocking and washing, the array was incubated with surface extracts (100 μg/ml) isolated from P. gingivalis 33277, the 0806 mutant, or the ragB mutant. P. gingivalis surface proteins bound on the ArcA array were detected using anti-P. gingivalis antibodies and sheep anti-rabbit IgG (H+L) DyLight680. The arrays were analyzed with a LI-COR Odyssey Imaging System.

Series [3] in a line: P4 stability in H2O and PBS (LC-MS/MS). Type of series: physicochemical. As for the experimental part:
Non-proteinogenic amino acids may improve peptide stability.
(§1) To determine P4 stability in solution, P4 was incubated in H2O, PBS, and whole saliva at 37° C. for 24 h. P4 in each sample was compared using LC-MS/MS analysis. Briefly, 2 μM P4 was injected on C18 nano-clumn and run with 5-20% of 0.1% FA in acetonitrile for 30 min. MS spectra were acquired in a positive mode on Orbitrap LTQ XL (Thermo).

In series [4] the test system is HOKs. Nature of the series: LDH cytotoxicity assay. It counts as cell-based, human. As to conditions: P4 as high as 200 μM, 48 h. The method, then: (§2) To examine the cytotoxic effects of P4, plasma membrane damage of HOKs was determined by the Pierce LDH Cytotoxicity Assay Kit. HOKs were seeded into a 6-well plate at a density of 1×10^5/well and cultured in Oral Keratinocyte Medium supplemented with antibiotics (100 U/mL penicillin and 100 μg/mL streptomycin) and 10% fetal calf serum at 37° C. in a humidified chamber with 5% CO2 for 24 h. The cells were then incubated with the growth medium supplemented with P4 (50 or 200 μM) for 48 h. The growth medium was collected for an LDH cytotoxicity assay according to the manufacturer's instructions (Thermo Scientific). To measure the effect of P4 on HOK apoptosis, HOKs were harvested and stained with Annexin V-FITC Apoptosis Kit (Invitrogen), which is able to stain both apoptotic cells and dead cells. Flow cytometric analysis was performed to quantitate apoptotic cells and dead cells (annexin V+/PI+).

Series [5] can be described thus: P4 stability in whole saliva (LC-MS/MS). It counts as in vitro ADME.
For series [6] the following is noted: buffer (PBS) and TBS (growth medium of P. gingivalis).
Series [7] deals with HOKs. In words: Annexin V-FITC apoptosis assay (flow cytometry). Type of series: cell-based, human. As to conditions: P4 as high as 200 μM, 48 h. The method, then:
as §2

Series [8] in a line: P4 stability in whole saliva (LC-MS/MS). It counts as in vitro ADME. The method, then:
as §1
The source holds these as a separate data set.

Series [9] relates to P. gingivalis 33277. In words: Immunofluorescence/confocal assay of ArcA binding to bacteria. Set-up: species or system Porphyromonas gingivalis. As to conditions: purified ArcA 50 μg, 10^8 cells. As for the experimental part:
The upper panel presents differential interference contrast (DIC) images showing the location of the bacteria. The red images in the lower panel are the TRITC fluorescence labeling images representing S. cristatus ArcA bound to P. gingivalis 33277 or A. actinomycetemcomitans Y4 that are positively labeled by ArcA specific antibody.
Confocal microscopy. ArcA (50 μg) was purified from S. cristatus CC5A as described (Teles R, Teles F, Frias-Lopez J, Paster B, Haffajee A. 2013. Lessons learned and unlearned in periodontal microbiology. Periodontal 2000 62: 95-162), mixed with P. gingivalis cells (10^8) in PBS and incubated at room temperature for 1 h. After washing three times with PBS, bacteria-protein complexes were blocked in PBS with 5% BSA for 1 h. ArcA bound to P. gingivalis was detected by staining with rabbit anti-ArcA polyclonal antibody (1:400) and tetramethyl rhodamine isothiocyanate (TRITC, 1:500)-conjugated AffiniPure Goat Anti-Rabbit IgG antibody. Visualization was with a LSM 510 inverted confocal microscope with selected filters (543 nm excitation and 560 nm emission).

Series [10] deals with P. gingivalis RagB (PGN_0294) and MotA/ToIQ/ExbB proton channel family protein (PGN_0806). In words: Pull-down assay of ArcA-interacting surface proteins. As to conditions: MS identification. Type of series: binding, Porphyromonas gingivalis. As for the experimental part: Pull-down assays. To isolate and identify P. gingivalis surface molecule(s) that interacts with ArcA, we performed a pull-down assay. Surface extracts of P. gingivalis were prepared by sonication with a Sonic Dismembrator (Fisher Scientific; output control 8, 20 s×3), and the cell debris were removed by centrifugation followed by filtration (0.2-μm pore size). Surface extracts of 33277 were mixed with purified ArcA on a rotator at room temperature for 1 h, and then added to an ArcA antibody coupled Sepharose 4B column (Sigma-Aldrich). After incubation at room temperature for 1 h, the column was washed three times with PBS containing 0.01% Tween, and proteins were eluted by 0.1 M Glycine pH 2.4. After SDS-PAGE, bands were excised and identified by liquid chromatography-mass spectrometry.

Turning to “VYNREEDTRIEGGDEL (listed as Streptococcus cristatus) [P3, ArcA-derived peptide from residue 208, C-terminal domain]”, in the series on P. gingivalis 33277 [1], the “inhibitory activity on virulence gene expression” value (“inhibitory activity” below) is listed as “some inhibitory activity”, the “Relative expression level fmA” value came to 0.87, the “Relative expression level kgp” value is recorded as 0.99 and the “Relative expression level mfa1” value was found to be 0.82. In addition, in the series with P. gingivalis 33277 [1], the “Relative expression level pgn0128” value is reported as 0.91, the “Relative expression level rgpA” value was 0.84 and the “Relative expression level rgpA/B” value was determined as 0.98. The “binding to P. gingivalis surface proteins” value in series [2] is “demonstrated to bind”.

On to NIFKKNVGFKK [P4, NIFKKNVGFKK], for which, in series [3] (37° C. for 24 h, initial study), the “stability at 37° C.” value is reported as “stable”. The “stability in H2O and PBS” value in series [3] (24 h incubation, 37° C.) was “not affected”. For the same substance, the “cell membrane damage of HOKs (LDH)” value in the series on HOKs [4] is “did not induce”. Further, the “Signal Intensity of 331.45 m/z peak” value in series [5] (Saliva, 48 hour, 37° C.) is 6.0 × 10^3 ± 4.1 × 10^2; in series [8] (Saliva (PBS:saliva 1:1), 0 hour) it was 3.9 × 10^6 ± 3.1 × 10^5; in [8] (Saliva, 0.5 hour, 37° C.) it was 3.6 × 10^6 ± 4.0 × 10^5; in [8] (Saliva, 1 hour, 37° C.), 2.4 × 10^6 ± 2.2 × 10^5; in series [8] (Saliva, 2 hour, 37° C.) it was 1.7 × 10^6 ± 4.2 × 10^5; in series [8] (Saliva, 4 hour, 37° C.), 8.8 × 10^5 ± 2.7 × 10^4. The “Signal Intensity of 331.45 m/z peak” value in series [8] (Saliva, 24 hour, 37° C.) is listed as 4.2 × 10^5 ± 3.9 × 10^4. For the same substance, the “signal in diluted whole saliva” value in [5] (after 48 h) is “completely diP4eared”; in series [8] (PBS:saliva 1:1, 0, 0.5, 1, 2, 4 and 24 h) it was “gradual reduction”. In addition, in [6], the “solubility” value is listed as “can be dissolved”. Moreover, the “apoptosis of HOKs (annexin V/PI)” value with HOKs [7] is “did not induce”. For the same substance, in series [8] (37° C.), the “time P4 can maintain in saliva at certain level” value was “at least 24 h”.

As to “IRGRETKK (listed as Streptococcus cristatus) [P1, ArcA-derived peptide from residue 97, N-terminal domain]”, in the series with P. gingivalis 33277 [1], the “inhibitory activity” value was “some inhibitory activity”, the “Relative expression level fmA” value amounted to 0.88, the “Relative expression level kgp” value stood at 1.06 and the “Relative expression level mfa1” value amounted to 0.85. Besides, in the series with P. gingivalis 33277 [1], the “Relative expression level pgn0128” value amounted to 0.96, the “Relative expression level rgpA” value worked out at 0.86 and the “Relative expression level rgpA/B” value stood at 0.89. Moreover, the “binding to P. gingivalis surface proteins” value in series [2] is recorded as “demonstrated to bind”.

As to arginine deiminase [ArcA], the “affinity of ArcA for bacterial cells” value in the series with P. gingivalis 33277 [9] is recorded as “high affinity”. For the same substance, the “interaction with P. gingivalis surface proteins PGN_0294 and PGN_0806” value in series [10] was “found to interact”.

With “ELVRGRGGPRCMSMPF (listed as Streptococcus cristatus) [P5, ArcA-derived peptide from residue 389, C-terminal domain]”, in the series with P. gingivalis 33277 [1], the “inhibitory activity” value is recorded as “some inhibitory activity”, the “Relative expression level fmA” value turned out to be 0.97, the “Relative expression level kgp” value turned out to be 0.96 and the “Relative expression level mfa1” value is 0.83. In the series with P. gingivalis 33277 [1], the “Relative expression level pgn0128” value is given as 0.91, the “Relative expression level rgpA” value stood at 0.73 and the “Relative expression level rgpA/B” value is 0.72. The “binding to P. gingivalis surface proteins” value in [2] is given as “demonstrated to bind”.

On to “NHMFADTRNRE (listed as Streptococcus cristatus) [P2, ArcA-derived peptide from residue 177, N-terminal domain]”, for which, in the series on P. gingivalis 33277 [1], the “inhibitory activity” value was “some inhibitory activity”, the “Relative expression level fmA” value amounted to 0.80, the “Relative expression level kgp” value is on record as 0.90 and the “Relative expression level mfa1” value is listed as 0.80. Also, in the series on P. gingivalis 33277 [1], the “Relative expression level pgn0128” value amounted to 0.88, the “Relative expression level rgpA” value amounted to 0.81 and the “Relative expression level rgpA/B” value turned out to be 0.78. The “binding to P. gingivalis surface proteins” value in series [2] was “demonstrated to bind”.
